Laboratory results published in ChEMBL document CHEMBL4689842, “EUbOPEN Chemogenomics Library wave 1” (2021).

Key:
Type in all cases: toxicity, cell-based
U2OS = test: Incucyte cell viability with U2OS; conditions: human, 10 µM, compound concentration 10 uM
Fibroblast = test: Incucyte cell viability with human fibroblast; conditions: 10 µM, compound concentration 10 uM
HEK-293T = test: Incucyte cell viability with HEK293T; conditions: human, 10 µM, compound concentration 10 uM
[1] = 0 h, replicate number 2, timepoint 0 hours
[2] = 6 h, replicate number 2, timepoint 6 hours
[3] = 12 h, replicate number 1, timepoint 12 hours
[4] = 18 h, replicate number 1, timepoint 18 hours
[5] = 24 h, replicate number 1, timepoint 24 hours
[6] = 0 h, replicate number 1, timepoint 0 hours
[7] = 6 h, replicate number 1, timepoint 6 hours
[8] = 12 h, replicate number 2, timepoint 12 hours
Note: filed as whole numbers so only -1 and 0 and 1 occur.

Structure (SMILES)	Growth Rate (U2OS; [3])	Growth Rate (U2OS; [4])	Growth Rate (U2OS; [5])	Growth Rate (Fibroblast; [6])	Growth Rate (Fibroblast; [7])	Growth Rate (Fibroblast; [3])	Growth Rate (Fibroblast; [8])	Growth Rate (Fibroblast; [4])	Growth Rate (Fibroblast; [5])	Growth Rate (HEK-293T; [6])	Growth Rate (HEK-293T; [7])	Growth Rate (HEK-293T; [3])	Growth Rate (HEK-293T; [4])	Growth Rate (HEK-293T; [5])	other results
O=C1NCN(c2ccccc2)C12CCN(CC1COc3ccccc3O1)CC2 (configuration not stated) [SPIROXATRINE]	1	1	1	0	1	1	0	0	1	1	0	0	0	0	Growth Rate (U2OS; [1]): 0; Growth Rate (U2OS; [2]): 1; Growth Rate (Fibroblast; [1]): 1; Growth Rate (Fibroblast; [2]): 0; Growth Rate (Fibroblast; 24 h, replicate number 2, timepoint 24 hours): 0; Growth Rate (HEK-293T; [1]): 0
CC1(C)CCC(C)(C)c2cc(NC(=O)c3ccc(C(=O)O)cc3)ccc21 [TAMIBAROTENE]	0	0	1	0	0	0	1	0	1	0	1	1	1	1	Growth Rate (U2OS; [6]): 0; Growth Rate (U2OS; [8]): 1; Growth Rate (U2OS; 18 h, replicate number 2, timepoint 18 hours): 1
